Assay results: BindingDB's records for doi:10.1021/acs.jmedchem.8b00170 (The University of Queensland, 2018)

Target: Melanocortin receptor 5 (Homo sapiens, UniProt P33032)
Assay: Displacement of [125I]-NDP-alpha-MSH from human MC5R LBD expressed in HEK293 cell membranes incubated for 16 to 23 hrs in dark by scintillation proximity assay

Chain of Melanocortin receptor 5 (P33032 whole entry, the tested form may be a part): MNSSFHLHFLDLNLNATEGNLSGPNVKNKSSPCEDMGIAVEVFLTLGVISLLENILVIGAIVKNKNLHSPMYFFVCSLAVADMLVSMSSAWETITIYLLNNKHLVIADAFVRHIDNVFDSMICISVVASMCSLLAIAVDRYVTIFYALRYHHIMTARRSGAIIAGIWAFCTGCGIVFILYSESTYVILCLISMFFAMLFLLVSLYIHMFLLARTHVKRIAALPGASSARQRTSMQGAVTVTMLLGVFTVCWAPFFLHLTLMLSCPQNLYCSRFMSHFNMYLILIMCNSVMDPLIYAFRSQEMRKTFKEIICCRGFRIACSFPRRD

CC[C@H](C)[C@@H]1NC(=O)[C@@H]2CCCN2C(=O)[C@@H]2CCCN2C(=O)[C@H]([C@@H](C)CC)NC(=O)[C@H](CO)NC(=O)[C@H](C)NC(=O)[C@H]([C@@H](C)O)NC(=O)[C@@H]2CSSC[C@H](NC1=O)C(=O)N[C@@H](Cc1c[nH]cn1)C(=O)N[C@H](Cc1ccccc1)C(=O)N(C)[C@@H](CCCNC(=N)N)C(=O)N(C)[C@@H](Cc1c[nH]c3ccccc13)C(=O)N[C@@H](CCCNC(=N)N)C(=O)N2
IC50: 0.813 µM
